Laboratory results: patent US20260232767A1, “INTERLEUKIN-23 RECEPTOR ANTAGONIST PEPTIDES FOR USE IN THE TREATMENT OF PSORIASIS” (Janssen Pharmaceutica NV, priority 2023, published 2026)

Test system: subjects with moderate-to-severe plaque psoriasis
Assay: Safety, adverse events, Example 2 through Week 56
Assay type: in vivo, human
Set-up: Participants experiencing 1 or more AEs: unit not given here
Conditions: for Subjects with 1 or more Adverse events / Subjects with 1 or more Adverse events: Alanine aminotransferase increased / Subjects with 1 or more Adverse events: Arthralgia / Subjects with 1 or more Adverse events: Aspartate aminotransferase increased / Subjects with 1 or more Adverse events: Bronchitis / Subjects with 1 or more Adverse events: COVID-19 / Subjects with 1 or more Adverse events: Cough / Subjects with 1 or more Adverse events: Diarrhea / Subjects with 1 or more Adverse events: Headache / Subjects with 1 or more Adverse events: Influenza / Subjects with 1 or more Adverse events: Nasopharyngitis / Subjects with 1 or more Adverse events: Upper respiratory tract infection / Subjects with 1 or more Adverse events: Urinary tract infection / Subjects with 1 or more Serious adverse events / Subjects with 1 or more Serious adverse events: COVID-19 / Subjects with 1 or more Serious adverse events: Cerebrovascular accident / Subjects with 1 or more Serious adverse events: Coronary artery disease / Subjects with 1 or more Serious adverse events: Diverticulitis / Subjects with 1 or more Serious adverse events: Foot deformity / Subjects with 1 or more Serious adverse events: Infected cyst / Subjects with 1 or more Serious adverse events: Intervertebral disc protrusion / Subjects with 1 or more Serious adverse events: Ligament injury / Subjects with 1 or more Serious adverse events: Non-cardiac chest pain / Subjects with 1 or more Serious adverse events: Suicide attempt / Subjects with 1 or more Serious adverse events: Tonsillar hypertrophy / Subjects with 1 or more Serious adverse events: Uterine leiomyoma / Subjects with 1 or more Serious adverse events: Ventricular dysfunction / Subjects with 1 or more treatment-emergent adverse events leading to discontinuation of study agent: number of subjects
Description: The LTE safety analysis was based on randomized participants in Example who entered the present long-term extension study and received at least one dose of study intervention (including a partial dose) during the study period.

[1] = Placebo → 100 mg QD, through Week 56
[2] = Week 16 through Week 56, dose group = column
[3] = combined group, long-term extension

CC(=O)NCCCC[C@@H]1NC(=O)[C@H](Cc2c[nH]c3c(C)cccc23)NC(=O)[C@H]([C@@H](C)O)NC(=O)[C@H](CC(N)=O)NC(=O)[C@@H](NC(C)=O)C(C)(C)SSC(C)(C)[C@@H](C(=O)N[C@@H](Cc2ccc(OCCN)cc2)C(=O)N[C@@H](Cc2ccc3ccccc3c2)C(=O)NC2(C(=O)N[C@@H](CCC(=O)O)C(=O)N[C@@H](CC(N)=O)C(=O)N[C@@H](Cc3cccnc3)C(=O)N(C)CC(N)=O)CCOCC2)NC1=O [IL-23 receptor antagonist peptide, Ac-[Pen]*-N-T-[W(7-Me)]-[Lys(Ac)]-[Pen]*-Phe[4-(2-aminoethoxy)]-[2-Nal]-[THP]-E-N-[3-Pal]-Sarc-NH2 (*[Pen]-[Pen]* formdisulfidebond)]
Pyrexia: number of subjects [1]: 0
Rash pruritic: number of subjects [1]: 0
Renal and urinary disorders: % of subjects [1]: (5.7%)
Renal and urinary disorders: number of subjects [1]: 2
Renal mass: number of subjects [1]: 0
Respiratory, thoracic and mediastinal disorders: % of subjects [1]: (2.9%)
Respiratory, thoracic and mediastinal disorders: number of subjects [1]: 1
Retinal vein occlusion: % of subjects [1]: (2.9%)
Retinal vein occlusion: number of subjects [1]: 1
Rhinorrhoea: number of subjects [1]: 0
Seasonal allergy: number of subjects [1]: 0
Skin and subcutaneous tissue disorders: % of subjects [1]: (5.7%)
Skin and subcutaneous tissue disorders: number of subjects [1]: 2
Skin laceration: number of subjects [1]: 0
Skin papilloma: number of subjects [1]: 0
Social circumstances: number of subjects [1]: 0
Steatohepatitis: number of subjects [1]: 0
Suicide attempt: number of subjects [1]: 0
Sunburn: number of subjects [1]: 0
Thrombocytopenia: number of subjects [1]: 0
Thrombocytosis: number of subjects [1]: 0
Tonsillar hypertrophy: number of subjects [1]: 0
Tooth fracture: number of subjects [1]: 0
Type 2 diabetes mellitus: number of subjects [1]: 0
Urinary tract disorder: number of subjects [1]: 0
Uterine leiomyoma: number of subjects [1]: 0
Vascular disorders: % of subjects [1]: (2.9%)
Vascular disorders: number of subjects [1]: 1
Ventricular dysfunction: number of subjects [1]: 0
Vertigo: number of subjects [1]: 0
Vitamin D deficiency: number of subjects [1]: 0
Investigations (system organ class): % of subjects [2]: (10.5%)
Nasopharyngitis: % of subjects [2]: (25.7%)
Infections and infestations AEs (all groups, long-term extension): 41.9%
Tolerability (all treatment groups, long-term extension): well-tolerated
COVID-19 [3]: 5.3%
Nasopharyngitis [3]: 18.1%
Participants experiencing 1 or more AEs [3]: 58.600
Upper respiratory tract infection [3]: 9.7%
Number of participants who discontinued study intervention due to one or more AEs (long-term extension): 4
Participants with one or more serious adverse events (long-term extension): 4.0%
Subjects with 1 or more Adverse events (through Week 56, 25 mg BID): 32
Subjects with 1 or more Adverse events: Alanine aminotransferase increased (through Week 56, 25 mg BID): 1
Subjects with 1 or more Adverse events: Arthralgia (through Week 56, 25 mg BID): 0
Subjects with 1 or more Adverse events: Aspartate aminotransferase increased (through Week 56, 25 mg BID): 1
Subjects with 1 or more Adverse events: Bronchitis (through Week 56, 25 mg BID): 2
Subjects with 1 or more Adverse events: COVID-19 (through Week 56, 25 mg BID): 9
Subjects with 1 or more Adverse events: Cough (through Week 56, 25 mg BID): 0
Subjects with 1 or more Adverse events: Diarrhea (through Week 56, 25 mg BID): 2
Subjects with 1 or more Adverse events: Headache (through Week 56, 25 mg BID): 3
Subjects with 1 or more Adverse events: Influenza (through Week 56, 25 mg BID): 3
Subjects with 1 or more Adverse events: Nasopharyngitis (through Week 56, 25 mg BID): 8
Subjects with 1 or more Adverse events: Upper respiratory tract infection (through Week 56, 25 mg BID): 3
Subjects with 1 or more Adverse events: Urinary tract infection (through Week 56, 25 mg BID): 1
Subjects with 1 or more Serious adverse events (through Week 56, 25 mg BID): 3
Subjects with 1 or more Serious adverse events: COVID-19 (through Week 56, 25 mg BID): 0
Subjects with 1 or more Serious adverse events: Cerebrovascular accident (through Week 56, 25 mg BID): 0
Subjects with 1 or more Serious adverse events: Coronary artery disease (through Week 56, 25 mg BID): 0
Subjects with 1 or more Serious adverse events: Diverticulitis (through Week 56, 25 mg BID): 0
Subjects with 1 or more Serious adverse events: Foot deformity (through Week 56, 25 mg BID): 0
Subjects with 1 or more Serious adverse events: Infected cyst (through Week 56, 25 mg BID): 0
Subjects with 1 or more Serious adverse events: Intervertebral disc protrusion (through Week 56, 25 mg BID): 0
Subjects with 1 or more Serious adverse events: Ligament injury (through Week 56, 25 mg BID): 1
Subjects with 1 or more Serious adverse events: Non-cardiac chest pain (through Week 56, 25 mg BID): 0
Subjects with 1 or more Serious adverse events: Suicide attempt (through Week 56, 25 mg BID): 0
Subjects with 1 or more Serious adverse events: Tonsillar hypertrophy (through Week 56, 25 mg BID): 1
Subjects with 1 or more Serious adverse events: Uterine leiomyoma (through Week 56, 25 mg BID): 0
Subjects with 1 or more Serious adverse events: Ventricular dysfunction (through Week 56, 25 mg BID): 1
Subjects with 1 or more treatment-emergent adverse events leading to discontinuation of study agent (through Week 56, 25 mg BID): 2
Subjects with 1 or more Adverse events (through Week 56, 25 mg QD): 24
Subjects with 1 or more Adverse events: Alanine aminotransferase increased (through Week 56, 25 mg QD): 1
Subjects with 1 or more Adverse events: Arthralgia (through Week 56, 25 mg QD): 1
Subjects with 1 or more Adverse events: Aspartate aminotransferase increased (through Week 56, 25 mg QD): 1
Subjects with 1 or more Adverse events: Bronchitis (through Week 56, 25 mg QD): 2
Subjects with 1 or more Adverse events: COVID-19 (through Week 56, 25 mg QD): 6
Subjects with 1 or more Adverse events: Cough (through Week 56, 25 mg QD): 1
Subjects with 1 or more Adverse events: Diarrhea (through Week 56, 25 mg QD): 2
Subjects with 1 or more Adverse events: Headache (through Week 56, 25 mg QD): 2
Subjects with 1 or more Adverse events: Influenza (through Week 56, 25 mg QD): 0
Subjects with 1 or more Adverse events: Nasopharyngitis (through Week 56, 25 mg QD): 3
Subjects with 1 or more Adverse events: Upper respiratory tract infection (through Week 56, 25 mg QD): 7
Subjects with 1 or more Adverse events: Urinary tract infection (through Week 56, 25 mg QD): 2
Subjects with 1 or more Serious adverse events (through Week 56, 25 mg QD): 0
Subjects with 1 or more Serious adverse events: COVID-19 (through Week 56, 25 mg QD): 0
Subjects with 1 or more Serious adverse events: Cerebrovascular accident (through Week 56, 25 mg QD): 0
Subjects with 1 or more Serious adverse events: Coronary artery disease (through Week 56, 25 mg QD): 0
Subjects with 1 or more Serious adverse events: Diverticulitis (through Week 56, 25 mg QD): 0
Subjects with 1 or more Serious adverse events: Foot deformity (through Week 56, 25 mg QD): 0
Subjects with 1 or more Serious adverse events: Infected cyst (through Week 56, 25 mg QD): 0
Subjects with 1 or more Serious adverse events: Intervertebral disc protrusion (through Week 56, 25 mg QD): 0
Subjects with 1 or more Serious adverse events: Ligament injury (through Week 56, 25 mg QD): 0
Subjects with 1 or more Serious adverse events: Non-cardiac chest pain (through Week 56, 25 mg QD): 0
Subjects with 1 or more Serious adverse events: Suicide attempt (through Week 56, 25 mg QD): 0
Subjects with 1 or more Serious adverse events: Tonsillar hypertrophy (through Week 56, 25 mg QD): 0
Subjects with 1 or more Serious adverse events: Uterine leiomyoma (through Week 56, 25 mg QD): 0
Subjects with 1 or more Serious adverse events: Ventricular dysfunction (through Week 56, 25 mg QD): 0
Subjects with 1 or more treatment-emergent adverse events leading to discontinuation of study agent (through Week 56, 25 mg QD): 3
Subjects with 1 or more Adverse events (through Week 56, 50 mg QD): 32
Subjects with 1 or more Adverse events: Alanine aminotransferase increased (through Week 56, 50 mg QD): 1
Subjects with 1 or more Adverse events: Arthralgia (through Week 56, 50 mg QD): 1
Subjects with 1 or more Adverse events: Aspartate aminotransferase increased (through Week 56, 50 mg QD): 1
Subjects with 1 or more Adverse events: Bronchitis (through Week 56, 50 mg QD): 4
Subjects with 1 or more Adverse events: COVID-19 (through Week 56, 50 mg QD): 6
Subjects with 1 or more Adverse events: Cough (through Week 56, 50 mg QD): 2
Subjects with 1 or more Adverse events: Diarrhea (through Week 56, 50 mg QD): 4
Subjects with 1 or more Adverse events: Headache (through Week 56, 50 mg QD): 1
Subjects with 1 or more Adverse events: Influenza (through Week 56, 50 mg QD): 1
Subjects with 1 or more Adverse events: Nasopharyngitis (through Week 56, 50 mg QD): 13
Subjects with 1 or more Adverse events: Upper respiratory tract infection (through Week 56, 50 mg QD): 3
Subjects with 1 or more Adverse events: Urinary tract infection (through Week 56, 50 mg QD): 1
Subjects with 1 or more Serious adverse events (through Week 56, 50 mg QD): 3
Subjects with 1 or more Serious adverse events: COVID-19 (through Week 56, 50 mg QD): 0
Subjects with 1 or more Serious adverse events: Cerebrovascular accident (through Week 56, 50 mg QD): 0
Subjects with 1 or more Serious adverse events: Coronary artery disease (through Week 56, 50 mg QD): 1
Subjects with 1 or more Serious adverse events: Diverticulitis (through Week 56, 50 mg QD): 0
Subjects with 1 or more Serious adverse events: Foot deformity (through Week 56, 50 mg QD): 1
Subjects with 1 or more Serious adverse events: Infected cyst (through Week 56, 50 mg QD): 1
Subjects with 1 or more Serious adverse events: Intervertebral disc protrusion (through Week 56, 50 mg QD): 0
Subjects with 1 or more Serious adverse events: Ligament injury (through Week 56, 50 mg QD): 0
Subjects with 1 or more Serious adverse events: Non-cardiac chest pain (through Week 56, 50 mg QD): 1
Subjects with 1 or more Serious adverse events: Suicide attempt (through Week 56, 50 mg QD): 0
